Experimental data from patent US6545038B1, “Heterocyclic metalloprotease inhibitors” (The Procter & Gamble Company, priority 1996, dated 2003).

Assay: Method of use Example B: daily capsule in a subject suffering from osteoarthritis
Assay type: in vivo
Conditions: human male, capsule containing 70 mg daily for 5 years
Protocol: A human subject weighing 90 kg (198 lbs), suffering from osteoarthritis, is treated by a method of this invention. Specifically, for 5 years, a capsule containing 70 mg of Example 3 is administered daily to said subject.

COc1ccc(S(=O)(=O)N2CCCSC(C)(C)[C@@H]2C(=O)N(C)O)cc1 [Example 3, 3(S)-N-Hydroxy-N-methyl-2,2-dimethyl-4N-[(4-methoxyphenyl)sulfonyl]-thiazepine-3-carboxamide]
erosion/fibrillation of the articular cartilage, examined via orthoscopy: no further advancement of erosion/fibrillation of the articular cartilage
